Consider ten molecules from PubChem BioAssay AID1963828 (Molecular Pharmacology Branch, DTP, NCI, 2024).

Usually viability, T/C stands for the ratio of treated to control. The IC50 is the concentration that gives 50% inhibition.

“And” between values parts separate entries of the source, which are not always exact repeats. Equal values may be shown once.

In this assay the test system is 991263-137-R1-J2-PDC complex spheroid viability. Put plainly: Anticancer human tumor 991263-137-R1-J2-PDC patient-derived colon adenocarcinoma cell line growth inhibition [POLQ]. The conditions noted are these: for viability, T/C: stronger effect = lower value; for IC50: curve of compound. Here is the method:
Multicellular complex tumor spheroid response to Polymerase (POL) inhibitors (novobiocin, ART-558, RP6685) in combination with a variety of drugs and investigational agents in selected tumor cell lines
The POL inhibitors (novobiocin, ART-558, and RP6685) were evaluated both individually and in combination with standard of care and investigational anticancer small molecules within a complex spheroid model of solid tumors. . Complex spheroids include a stromal component modeled by human endothelial cells (HUVEC) and fibroblasts modeled by human mesenchymal stem cells (MSCs). The concentration ranges selected for each drug and investigational agent were based upon clinically achievable concentrations if the clinical Cmax of the agent was known.
Compounds. The drugs and investigational agents: novobiocin (NSC847541), ART-558 (NSC835418), RP-6685 (NSC848927), peposertib (NSC802822), ceralasertib (NSC780249), elimusertib (NSC800525), camonsertib (NSC841442), AZD-1390 (NSC803789), olaparib (NSC753686), talazoparib (NSC767125), rucaparib (NSC756644), sotorasib (NSC818433), MRTX-1133 (NSC836407), SN-38 (NSC673596), topotecan (NSC609699), epotoside (NSC141540), doxorubicin (NSC123127), gemcitabine (NSC613327), 5-fluorouracil (NSC19893), paclitaxel (NSC125973), vemurafenib (NSC761431), MSA-2 (NSC828583), SN-011 (NSC837082), adavosertib (NSC754352), prexasertib (NSC758257), carboplatin (NSC241240) and oxaliplatin (NSC266046), were obtained from the National Cancer Institute (NCI) Developmental Therapeutics Program Chemical Repository (21). The FDA-approved anticancer drug set is available from the Developmental Therapeutics Program at https://dtp.cancer.gov/organization/dscb/obtaining/. […] The stock solutions were prepared in dimethyl sulfoxide (DMSO, Sigma-Aldrich, St. Louis, MO, cat. D2650), except for the platinum compounds which were prepared in saline (Quality Biological, Gaithersburg, MD, cat. 114-055-101), at 800-fold the tested concentration and stored at -70 degrees C prior to their use. All drugs and investigational agents were tested over a range starting from a high concentration at or near the clinical Cmax and decreasing in half-log increments. If the clinical Cmax for an agent had not been determined, the highest concentration tested was 10 microM, except for SN-38, which was tested at a high concentration of 1 microM.
Cell Culture. All cells were maintained in an incubator at 37 degrees C and 5% CO2 with 95% humidity. The PDC lines were cultured according to standard operating procedures established by the NCI PDMR (https://pdmr.cancer.gov). Table 3 of the manuscript, lists the cell lines along with the number of the three cell types plated to form the mct-spheroids and media for tumor cell growth. After thawing, all PDC lines, except 997537-175-T-J1-PDC and 415267-285-R-J2-PDC, were cultured in Matrigel-coated flasks prepared with a working solution of 1X Ham's F-12 nutrient mix, without supplementation (Thermo Fisher Scientific, cat. 11765054), 100 U/mL penicillin-streptomycin (Thermo Fisher Scientific, cat. 15140122), and 2.5% Matrigel (Corning Inc., Corning, NY, cat. 354248) for the first three passages. The two PDC lines 997537-175-T-J1-PDC and 415267-285-R-J2-PDC were cultured on uncoated flasks. The 857933-349-R-J2-PDC line was cultured in 6C/Colon 1B media containing advanced DMEM/F-12 (Thermo Fisher Scientific, cat. 12634028), 10 mM HEPES (Thermo Fisher Scientific, cat. 15630080), 1X GlutaMAX supplement (Thermo Fisher Scientific, cat. 35050061), 0.1 mg/mL primocin (InvivoGen, San Diego, CA, cat. ant-pm-2), 10% defined fetal bovine serum, heat inactivated (HyClone Laboratories Inc., Logan, UT, cat. SH30070.03HI), 50% L-WRN conditioned media (ATCC, cat. CRL-3276), 1.25 mM N-Acetyl-L-cysteine (Sigma-Aldrich, cat. A9165), 10 mM nicotinamide (Sigma-Aldrich, cat. N0636), 1X B-27 supplement (Thermo Fisher Scientific, cat. 17504044), 1X N-2 supplement (Thermo Fisher Scientific, cat. […]
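Also: spheroids exposed to compounds for 7 days before readout.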

As for `C=CC(=O)N1CCN(c2nc(=O)n(-c3c(C)ccnc3C(C)C)c3nc(-c4c(O)cccc4F)c(F)cc23)C(C)C1` (stereo not given), the IC50 was greater than 10000 nM. Further, where the note is “compound 0.0316 µM”, the viability, T/C is 119% and 99.2% and 102%. The viability, T/C (compound 0.1 µM) is 104% (2×) and 89.8%. In addition, the viability, T/C (compound 0.316 µM) was 107% and 105% and 103%. Further, for the setting “compound 1 µM”, the viability, T/C was 118% and 107% and 104%. Further, the viability, T/C (compound 10 µM) is 104% and 108% and 110%.
For the molecule `C=CCn1c(=O)c2cnc(Nc3ccc(N4CCN(C)CC4)cc3)nc2n1-c1cccc(C(C)(C)O)n1`, the IC50 was greater than 1000 nM. Besides, for the setting “compound 0.00316 µM”, the viability, T/C was 103% and 105% and 106%. In addition, the viability, T/C (compound 0.01 µM) is 88.5% and 105% and 93.9%. Moreover, where the note is “compound 0.0316 µM”, the viability, T/C is 87% and 106% and 98.4%. For the same molecule, the viability, T/C (compound 0.1 µM) is 107% and 98.7% and 95.2%. Besides, the viability, T/C (compound 1 µM) was 86.5% and 94.9% and 95%.
On to `CC(=O)O[C@H]1C(=O)[C@@]2(C)[C@H]([C@H](OC(=O)c3ccccc3)[C@]3(O)C[C@H](OC(=O)[C@H](O)[C@@H](NC(=O)c4ccccc4)c4ccccc4)C(C)=C1C3(C)C)[C@]1(OC(C)=O)CO[C@@H]1C[C@@H]2O`, for which the IC50 was 1450 nM and 2480 nM and 1630 nM. For the same molecule, where the note is “compound 0.00949 µM”, the viability, T/C was 79.8% and 86.8% and 96.5%. The viability, T/C (compound 0.03 µM) was 85.2% and 89.3% and 87.6%. Besides, the viability, T/C (compound 0.0949 µM) is 85.4% and 84% and 87.8%. In addition, under “compound 0.3 µM”, the viability, T/C was 73.3% and 77.9% and 82.3%. The viability, T/C (compound 0.949 µM) was 52.2% and 63.6% and 54.8%. In addition, the viability, T/C (compound 3 µM) is 46.8% and 47.3% and 44.4%.
With `CC(C)n1c(=O)n(C)c2cnc3cc(F)c(-c4ccc(OCCCN5CCCCC5)nc4)cc3c21`, the IC50 is greater than 10000 nM. The viability, T/C (compound 0.0316 µM) is 101% and 103% and 89.4%. In addition, for the setting “compound 0.1 µM”, the viability, T/C was 103% and 104% and 95.9%. For the setting “compound 0.316 µM”, the viability, T/C is 85.1% and 103% and 99.6%. Moreover, where the note is “compound 1 µM”, the viability, T/C is 110% and 121% and 129%. For the same molecule, the viability, T/C (compound 3.16 µM) was 101% and 104% and 89.3%.
For the molecule `CC1COCCN1c1cc(-c2ccnn2C)c2ccnc(-c3ccn[nH]3)c2n1` (stereo not given), the IC50 was 1350 nM and 759 nM and 1690 nM. Moreover, the viability, T/C (compound 0.0316 µM) is 112% and 99.9% and 100%. For the same molecule, the viability, T/C (compound 0.1 µM) was 86.5% and 89.2% and 93.4%. In addition, the viability, T/C (compound 0.316 µM) is 81.6% and 77.2% and 83%. Besides, the viability, T/C (compound 1 µM) was 52.1% and 41.8% and 54.8%. Under “compound 3.16 µM”, the viability, T/C is 35.4% and 24% and 43.9%. The viability, T/C (compound 10 µM) was 28.9% and 25.4% and 31.9%.
Take `CC1COCCN1c1cc(C2(S(C)(=N)=O)CC2)nc(-c2ccnc3[nH]ccc23)n1` (stereo not given): the IC50 is greater than 10000 nM. Under “compound 0.0316 µM”, the viability, T/C was 107% and 98.9% and 98.6%. Besides, the viability, T/C (compound 0.1 µM) was 96.1% and 109% and 104%. Moreover, the viability, T/C (compound 0.316 µM) was 100% and 94.6% and 92.8%. Moreover, under “compound 1 µM”, the viability, T/C is 103% and 101% and 95.1%. Further, the viability, T/C (compound 3.16 µM) was 83% and 97.9% and 103%. The viability, T/C (compound 10 µM) was 75.5% and 93.9% and 74.7%.
On to `CCCS(=O)(=O)Nc1ccc(F)c(C(=O)c2c[nH]c3ncc(-c4ccc(Cl)cc4)cc23)c1F`, for which the IC50 was greater than 10000 nM. Besides, the viability, T/C (compound 0.0316 µM) was 110% and 93.5% and 111%. The viability, T/C (compound 0.1 µM) is 99.2% and 90.3% and 101%. For the same molecule, where the note is “compound 0.316 µM”, the viability, T/C is 108% and 94.4% and 86%. Moreover, the viability, T/C (compound 3.16 µM) was 114% and 104% and 107%. For the same molecule, the viability, T/C (compound 10 µM) was 97.2% and 94.1% and 109%.
Turning to `CC[C@@]1(O)C(=O)OCc2c1cc1n(c2=O)Cc2cc3c(CN(C)C)c(O)ccc3nc2-1`, the IC50 is greater than 100 nM. Further, the viability, T/C (compound 0.000316 µM) was 111% and 94.9% and 103%. In addition, the viability, T/C (compound 0.001 µM) is 101% and 96.9% and 107%. The viability, T/C (compound 0.00316 µM) is 110% (2×) and 111%. Also, the viability, T/C (compound 0.01 µM) was 105% and 101% and 91.5%. Moreover, the viability, T/C (compound 0.0316 µM) was 100% and 91.2% and 89.8%. Also, for the setting “compound 0.1 µM”, the viability, T/C is 90.4% and 80.7% and 84.4%.
With `CCc1c2c(nc3ccc(O)cc13)-c1cc3c(c(=O)n1C2)COC(=O)[C@]3(O)CC`, the IC50 is 99 nM and 83.3 nM and 93.9 nM. Moreover, the viability, T/C (compound 0.00316 µM) is 88.8% and 83.4% and 108%. For the same molecule, the viability, T/C (compound 0.01 µM) was 80% and 74.9% and 74%. Besides, the viability, T/C (compound 0.0316 µM) was 63% and 64.4% and 51.9%. For the setting “compound 0.1 µM”, the viability, T/C was 49.8% and 45.2% and 54.4%. Besides, the viability, T/C (compound 0.316 µM) was 37.3% and 37.2% and 36.9%. Further, the viability, T/C (compound 1 µM) is 25.2% and 26.9% and 20.9%.
On to `CNCc1ccc(-c2[nH]c3cc(F)cc4c3c2CCNC4=O)cc1`, for which the IC50 is greater than 10000 nM. Moreover, the viability, T/C (compound 0.0316 µM) is 98% and 102% and 119%. The viability, T/C (compound 0.1 µM) was 109% and 91.5% and 97.6%. Moreover, the viability, T/C (compound 0.316 µM) was 97% and 102% and 112%. Moreover, under “compound 1 µM”, the viability, T/C is 110% and 101% and 96%. Further, the viability, T/C (compound 10 µM) was 111% and 110% and 104%.
